In article PMC6946680, “Modulation of brain cation-Cl^− cotransport via the SPAK kinase inhibitor ZT-1a” (Nature Communications, 2020):
Several values for one entry are separate records, joined by “and”; a condition that tells them apart may be missing. Identical values can stand only once.

Columns and labels:
[1] = tested on: SPAK phosphorylation; assay: Pharmacodynamic study, SPAK phosphorylation in kidney of naive mice; format: in vivo, mouse; details: Fig S8b (kidney); 50 mg/kg
Method: (§1) To define ZT-1a efficacy in naive mice in vivo, we examined phosphorylation of SPAK, NKCC1, and NCC in kidney, and phosphorylation of SPAK, NKCC1, and KCC3 in brain, after intraperitoneal (i.p.) administration of either ZT-1a (10, 30, 50, and 100 mg/kg) or Closantel (50 mg/kg as a reference). […]
(§2) 5. Pharmacodynamic (PD) study
(§3) Male C57BL/6j wild-type mice (6 weeks old, Charles River Laboratories Edinburgh UK) were treated with ZT-1a (in DMSO, Sigma) by subcutaneous injection at doses of 0, 3, 10, 30, 50 and 100 mg/kg. 50 mg/kg Closantel was administered as a comparative control. Vehicle control mice were treated with an equal volume of DMSO solution. One hour after administration, mice were sacrificed by cervical dislocation, and kidney and brain tissues were rapidly dissected and snap-frozen in liquid nitrogen. Age- […]
(§4) free conditions at the University of Dundee (UK) as described in our recent study1. Animal experiments and breeding were approved by the University of Dundee ethical committee and performed under a […]
(§5) Policy on the Care, Welfare and Treatment of Animals, and regulations set by the University of Dundee and the U.K. Home Office. […]
(§6) Brain and kidney tissues were collected at 60 min post injection, and proteins subjected to immunoblot were probed with antibodies specific for phosphorylated forms of SPAK,

[2] = tested on: mouse model of ischemic stroke (tMCAO); assay: Infarct volume and hemispheric swelling (TTC) 24 h after tMCAO; format: in vivo; details: for Infarct volume (mm3): Fig 9b; for Infarct volume (mm3) / Hemisphere swelling (%): individual mice; for Hemisphere swelling (%): Fig 9c
[3] = tested on: SPAK phosphorylation; assay: Pharmacodynamic study, SPAK phosphorylation in brain of naive mice; format: in vivo, mouse; details: Fig S8a (brain); 50 mg/kg
Method: as §1, §2, §3, §4, §5, §6

[4] = tested on: KCC3 pThr1048; assay: Immunoblot of KCC site 2 phosphorylation (KCC3 Thr1048) in HEK-293 cells transfected with FLAG-KCC3; format: cell-based, human; details: single replicates
[5] = tested on: C57BL/6J mice; assay: Kaplan-Meier survival of naive and ischemic stroke mice at 25 mg/kg; format: in vivo, mouse; details: for Days elapsed: Fig S12, single mice
Method: We compared the neuroprotective efficacy of Closantel with that of the pan-WNK-kinase inhibitor WNK463. […] Moreover, toxicity of Closantel and ZT-1a at 25 mg/kg in naive and ischemic stroke mice was reflected in Kaplan–Meier survival curves (Supplementary Fig. 12).
Supplemental Fig. 12 Kaplan-Meier survival curve of naïve and ischemic stroke mice treated with […]
Normal naïve C57BL/6J mice, or mice after tMCAO randomly received Closantel or ZT-1a treatment […]
was monitored for 0-7 days post-treatment. No mortality was detected in the naïve mice treated with Closantel or ZT-1a. However, all ischemic stroke mice treated with Closantel died within 2 days, with a […]
median survival of 1 day. […]
days). n = 3 per group (naïve+Closantel or naive+ZT-1a), n = 6 per group (tMCAO+vehicle or tMCAO+Closantel or tMCAO+ZT-1a), *p < 0.05, Log-rank test.

## Cc1cc(C(C#N)c2ccc(Cl)cc2)c(Cl)cc1NC(=O)c1cc(I)cc(I)c1O (centres unmarked) [Closantel, reference compound]
[1]
  pSer373 / SPAK: 0.54 and 0.38 and 0.32 and 0.46
[2]; Closantel 0.1 mg/kg
  infarct volume and hemispheric swelling: ineffective
[2]; Closantel 1.0 or 2.5 mg/kg at 3 and 8 h post reperfusion
  infarct volume and hemispheric swelling: reduced infarct volume and hemispheric swelling in a dose-dependent manner
[2]; group Closantel 0.1
  Infarct volume (mm3): 52.64 mm3 and 37.67 mm3 and 66.15 mm3 and 91.58 mm3 and 31.83 mm3 and 54.68 mm3 and 37.74 mm3 and 60.16 mm3
  Hemisphere swelling (%): 17.46% and 13.77% and 21.57% and 18.71% and 11.16% and 11.73% and 9.03% and 12%
[2]; group Closantel 1.0
  Infarct volume (mm3): 45.07 mm3 and 60.3 mm3 and 40.86 mm3 and 27.89 mm3 and 44.96 mm3 and 50.26 mm3 and 35.08 mm3 and 36.9 mm3
  Hemisphere swelling (%): 14.03% and 8.76% and 11.37% and 10.48% and 8.67% and 13.59% and 10.61% and 15.28%
[2]; group Closantel 2.5
  Infarct volume (mm3): 19.91 mm3 and 50.06 mm3 and 19.99 mm3 and 41.45 mm3 and 32.49 mm3
  Hemisphere swelling (%): 3.84% and 16.57% and 8.91% and 6.76% and 4.41%
[3]
  pSer373 / SPAK: 0.54 and 0.68 and 0.62 and 0.52
[4]; Hypotonic low Cl, 1 uM
  T1007/KCC2 band intensity ratio: 0.34 and 0.36 and 0.343 and 0.37
[4]; Hypotonic low Cl, 3 uM
  T1007/KCC2 band intensity ratio: 0.16 and 0.144 and 0.163 and 0.152
[4]; Hypotonic low Cl, 10 uM
  T1007/KCC2 band intensity ratio: 0.113 and 0.046 and 0.08 and 0.1
[4]; Isotonic control, 1 uM
  T1007/KCC2 band intensity ratio: 0.358 (2×) and 0.326 and 0.311
[4]; Isotonic control, 3 uM
  T1007/KCC2 band intensity ratio: 0.141 and 0.106 and 0.123 and 0.134
[4]; Isotonic control, 10 uM
  T1007/KCC2 band intensity ratio: 0.071 and 0.062 and 0.054 and 0.067
[5]; 25 mg/kg
  mortality of ischemic stroke mice: 100%
[5]; 25 mg/kg i.p., 0-7 days, n = 3
  mortality in naive mice: No mortality
[5]; 25 mg/kg i.p., tMCAO
  time by which all ischemic stroke mice died: ≤ 2 days
[5]; 25 mg/kg i.p., tMCAO, n = 6
  median survival of ischemic stroke mice: 1 days
[5]; MCAO mice
  Days elapsed: 1 days and 2 days
[5]; mice without MCAO
  Days elapsed: 7 days
[5]; ~25 mg/kg
  toxicity in mice at higher doses: toxicity
